Experimental data: ChEMBL document CHEMBL4610007, “Design and synthesis of boron-containing diphenylpyrimidines as potent BTK and JAK3 dual inhibitors” (Bioorg Med Chem, 2020)

Tests used:
Raji = assay: cells; settings: Homo sapiens, 72 h
Description: Antiproliferative activity against human Raji cells assessed as reduction in cell viability incubated for 72 hrs by CCK-8 assay

OCI-Ly10 = assay: cells; settings: Homo sapiens, OCI-Ly10, 72 h
Description: Antiproliferative activity against human OCI-LY10 cells assessed as reduction in cell viability incubated for 72 hrs by CCK-8 assay

Ramos = assay: cells; settings: Homo sapiens, 72 h
Description: Antiproliferative activity against human Ramos cells assessed as reduction in cell viability incubated for 72 hrs by CCK-8 assay

[1] = target: Non-receptor tyrosine-protein kinase TYK2 (Homo sapiens, UniProt P29597); assay: Inhibition of recombinant human N-terminal GST-tagged TYK2 (871 to 1187 residues) expressed in baculovirus expression system using Ulight-Poly GT as substrate incubated for 2 hrs by Lanthascreen TR-FRET assay
Sequence of Non-receptor tyrosine-protein kinase TYK2 (P29597 whole entry, the tested form may be a part): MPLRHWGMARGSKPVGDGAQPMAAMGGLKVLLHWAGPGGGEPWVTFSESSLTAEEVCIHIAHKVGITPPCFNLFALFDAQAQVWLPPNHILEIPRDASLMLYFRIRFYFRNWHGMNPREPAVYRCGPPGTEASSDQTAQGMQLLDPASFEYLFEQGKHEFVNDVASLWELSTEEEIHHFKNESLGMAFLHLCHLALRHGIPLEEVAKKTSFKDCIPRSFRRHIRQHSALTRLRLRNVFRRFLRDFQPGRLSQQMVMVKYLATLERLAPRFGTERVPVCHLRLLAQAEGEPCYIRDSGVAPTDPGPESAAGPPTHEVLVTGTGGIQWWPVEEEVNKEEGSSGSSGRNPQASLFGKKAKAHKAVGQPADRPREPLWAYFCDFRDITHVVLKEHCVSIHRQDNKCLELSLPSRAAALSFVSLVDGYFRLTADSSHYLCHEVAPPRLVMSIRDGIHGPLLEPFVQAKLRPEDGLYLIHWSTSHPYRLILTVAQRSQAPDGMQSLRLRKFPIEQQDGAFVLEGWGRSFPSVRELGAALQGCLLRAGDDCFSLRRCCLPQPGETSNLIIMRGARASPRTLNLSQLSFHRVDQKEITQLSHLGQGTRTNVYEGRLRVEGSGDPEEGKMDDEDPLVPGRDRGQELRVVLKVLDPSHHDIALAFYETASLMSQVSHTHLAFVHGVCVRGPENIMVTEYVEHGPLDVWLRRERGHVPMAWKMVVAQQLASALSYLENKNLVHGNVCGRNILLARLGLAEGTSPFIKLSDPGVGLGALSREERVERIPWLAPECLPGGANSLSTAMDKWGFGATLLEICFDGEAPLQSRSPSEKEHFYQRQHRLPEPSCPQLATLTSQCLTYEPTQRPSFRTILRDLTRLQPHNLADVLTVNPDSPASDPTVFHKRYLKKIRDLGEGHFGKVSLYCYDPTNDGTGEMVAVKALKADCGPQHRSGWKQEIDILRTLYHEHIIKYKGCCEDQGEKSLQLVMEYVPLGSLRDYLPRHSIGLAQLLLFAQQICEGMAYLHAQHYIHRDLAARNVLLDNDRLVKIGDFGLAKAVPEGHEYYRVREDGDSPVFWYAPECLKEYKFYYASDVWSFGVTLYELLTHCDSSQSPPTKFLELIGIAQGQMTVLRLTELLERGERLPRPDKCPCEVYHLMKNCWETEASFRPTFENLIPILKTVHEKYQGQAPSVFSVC

JeKo-1 = assay: cells; settings: Homo sapiens, JeKo-1, 72 h
Description: Antiproliferative activity against human JeKo1 cells assessed as reduction in cell viability incubated for 72 hrs by CCK-8 assay

in vitro [2] = settings: human, liver microsomes
Homo sapiens [3] = species on record: Homo sapiens; assay: Selectivity index, ratio of IC50 for recombinant human N-terminal GST-tagged JAK1 (850 to 1154 residues) expressed in baculovirus expression system to IC50 for recombinant human N-terminal His-tagged JAK3 (795 to 1124 residues) expressed in baculovirus expression system
Homo sapiens [4] = species on record: Homo sapiens; assay: Selectivity index, ratio of IC50 for recombinant human N-terminal GST-tagged TYK2 (871 to 1187 residues) expressed in baculovirus expression system to IC50 for recombinant human N-terminal His-tagged JAK3 (795 to 1124 residues) expressed in baculovirus expression system
in vitro [5] = settings: human, liver microsomes; remark: listed apart in the source
Description: Metabolic stability in human liver microsomes assessed as compound remaining at 0.2 uM incubated for 60 mins by UPLC-MS/MS analysis

Homo sapiens [6] = species on record: Homo sapiens; assay: Selectivity index, ratio of IC50 for recombinant human N-terminal His-tagged JAK2 (826 to 1132 residues) expressed in baculovirus expression system to IC50 for recombinant human N-terminal His-tagged JAK3 (795 to 1124 residues) expressed in baculovirus expression system
HEL = assay: cells; settings: Homo sapiens, 72 h
Description: Antiproliferative activity against human HEL cells assessed as reduction in cell viability incubated for 72 hrs by CCK-8 assay

in vitro [7] = settings: human, liver microsomes; remark: listed apart in the source
[8] = target: T1, Tyrosine-protein kinase JAK3 (Homo sapiens, UniProt P52333)
T1 sequence (P52333 whole entry): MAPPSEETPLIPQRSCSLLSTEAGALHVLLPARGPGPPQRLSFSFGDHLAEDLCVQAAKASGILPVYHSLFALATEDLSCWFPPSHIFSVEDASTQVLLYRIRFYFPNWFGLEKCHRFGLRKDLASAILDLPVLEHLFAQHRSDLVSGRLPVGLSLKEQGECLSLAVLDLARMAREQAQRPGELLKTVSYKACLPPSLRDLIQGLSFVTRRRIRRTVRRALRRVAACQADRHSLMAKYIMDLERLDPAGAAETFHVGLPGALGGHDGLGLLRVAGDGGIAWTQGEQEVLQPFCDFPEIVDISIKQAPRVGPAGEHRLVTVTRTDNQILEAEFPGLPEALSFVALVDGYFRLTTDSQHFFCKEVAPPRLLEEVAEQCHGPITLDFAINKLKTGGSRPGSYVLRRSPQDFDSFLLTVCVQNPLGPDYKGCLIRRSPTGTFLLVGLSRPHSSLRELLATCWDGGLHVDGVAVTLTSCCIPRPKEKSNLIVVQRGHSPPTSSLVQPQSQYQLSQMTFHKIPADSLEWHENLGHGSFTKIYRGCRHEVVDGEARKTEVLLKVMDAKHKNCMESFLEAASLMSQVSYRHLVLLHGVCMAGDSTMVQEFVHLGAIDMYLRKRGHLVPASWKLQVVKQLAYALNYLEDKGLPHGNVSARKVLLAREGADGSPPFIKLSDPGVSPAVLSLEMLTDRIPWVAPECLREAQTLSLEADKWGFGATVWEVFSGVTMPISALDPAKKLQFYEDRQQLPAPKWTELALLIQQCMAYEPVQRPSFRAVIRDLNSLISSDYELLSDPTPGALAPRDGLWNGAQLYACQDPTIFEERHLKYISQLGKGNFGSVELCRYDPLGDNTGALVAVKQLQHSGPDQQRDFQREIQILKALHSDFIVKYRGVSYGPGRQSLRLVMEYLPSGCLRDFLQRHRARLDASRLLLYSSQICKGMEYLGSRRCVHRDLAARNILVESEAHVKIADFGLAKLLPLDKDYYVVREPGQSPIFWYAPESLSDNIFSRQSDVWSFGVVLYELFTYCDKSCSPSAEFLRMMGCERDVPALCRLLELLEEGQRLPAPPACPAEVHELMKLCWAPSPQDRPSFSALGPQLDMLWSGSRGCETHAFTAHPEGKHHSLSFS
Description: Inhibition of recombinant human N-terminal His-tagged JAK3 (795 to 1124 residues) expressed in baculovirus expression system using Ulight-Poly GT as substrate incubated for 2 hrs by Lanthascreen TR-FRET assay

[9] = target: Tyrosine-protein kinase JAK2 (Homo sapiens, UniProt O60674)
Sequence of Tyrosine-protein kinase JAK2 (O60674 whole entry): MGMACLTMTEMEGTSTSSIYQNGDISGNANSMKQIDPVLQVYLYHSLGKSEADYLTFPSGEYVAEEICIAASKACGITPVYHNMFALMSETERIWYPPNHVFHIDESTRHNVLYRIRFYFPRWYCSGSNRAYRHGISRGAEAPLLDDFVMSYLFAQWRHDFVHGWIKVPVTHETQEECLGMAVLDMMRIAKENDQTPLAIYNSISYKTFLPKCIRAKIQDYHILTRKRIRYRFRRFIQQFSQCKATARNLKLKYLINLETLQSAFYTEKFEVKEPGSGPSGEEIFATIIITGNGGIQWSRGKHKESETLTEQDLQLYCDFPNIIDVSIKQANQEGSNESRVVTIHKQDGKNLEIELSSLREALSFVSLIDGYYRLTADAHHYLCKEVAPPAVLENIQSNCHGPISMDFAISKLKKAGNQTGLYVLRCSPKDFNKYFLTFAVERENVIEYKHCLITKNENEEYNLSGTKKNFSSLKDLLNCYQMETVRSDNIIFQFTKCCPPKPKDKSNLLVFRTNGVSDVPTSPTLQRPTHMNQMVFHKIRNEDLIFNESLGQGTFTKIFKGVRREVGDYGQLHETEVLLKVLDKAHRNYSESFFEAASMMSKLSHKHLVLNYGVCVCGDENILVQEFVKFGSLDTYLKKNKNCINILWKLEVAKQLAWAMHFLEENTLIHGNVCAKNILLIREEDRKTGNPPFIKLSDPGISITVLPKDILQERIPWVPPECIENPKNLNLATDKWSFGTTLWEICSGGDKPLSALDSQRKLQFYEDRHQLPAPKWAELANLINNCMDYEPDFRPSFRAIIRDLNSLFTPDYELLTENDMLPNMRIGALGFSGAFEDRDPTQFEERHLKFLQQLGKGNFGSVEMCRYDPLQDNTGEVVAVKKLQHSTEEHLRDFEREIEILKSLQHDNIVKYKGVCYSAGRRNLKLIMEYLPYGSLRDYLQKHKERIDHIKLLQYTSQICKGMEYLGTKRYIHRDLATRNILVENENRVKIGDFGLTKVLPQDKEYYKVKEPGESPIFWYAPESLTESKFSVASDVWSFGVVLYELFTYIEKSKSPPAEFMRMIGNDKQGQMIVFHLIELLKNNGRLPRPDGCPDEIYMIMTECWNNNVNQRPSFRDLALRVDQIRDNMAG
Description: Inhibition of recombinant human N-terminal His-tagged JAK2 (826 to 1132 residues) expressed in baculovirus expression system using Ulight-Poly GT as substrate incubated for 2 hrs by Lanthascreen TR-FRET assay

[10] = target: Tyrosine-protein kinase BTK (Homo sapiens, UniProt Q06187)
Sequence of Tyrosine-protein kinase BTK (Q06187 whole entry, the tested form may be a part): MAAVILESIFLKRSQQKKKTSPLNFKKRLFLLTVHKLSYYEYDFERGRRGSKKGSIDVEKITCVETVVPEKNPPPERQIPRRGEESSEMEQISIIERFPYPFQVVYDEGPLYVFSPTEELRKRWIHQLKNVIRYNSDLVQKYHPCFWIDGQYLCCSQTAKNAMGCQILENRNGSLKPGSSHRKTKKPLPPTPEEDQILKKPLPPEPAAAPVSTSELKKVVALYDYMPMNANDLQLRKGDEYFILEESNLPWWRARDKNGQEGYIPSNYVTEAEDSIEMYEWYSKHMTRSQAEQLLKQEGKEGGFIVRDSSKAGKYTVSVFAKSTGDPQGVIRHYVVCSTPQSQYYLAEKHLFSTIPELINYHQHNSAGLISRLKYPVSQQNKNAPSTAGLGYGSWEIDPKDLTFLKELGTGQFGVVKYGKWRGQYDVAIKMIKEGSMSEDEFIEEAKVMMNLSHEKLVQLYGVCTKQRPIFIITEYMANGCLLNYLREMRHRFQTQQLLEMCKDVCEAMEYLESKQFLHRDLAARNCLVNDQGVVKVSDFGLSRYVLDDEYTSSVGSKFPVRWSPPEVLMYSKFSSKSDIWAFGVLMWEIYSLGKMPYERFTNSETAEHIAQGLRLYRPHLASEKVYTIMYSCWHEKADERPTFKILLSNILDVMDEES
Description: Inhibition of recombinant human His-tagged full length BTK expressed in baculovirus expression system using Ulight-Poly GT as substrate incubated for 2 hrs by Lanthascreen TR-FRET assay

[11] = target: Tyrosine-protein kinase JAK1 (Homo sapiens, UniProt P23458); assay: Inhibition of recombinant human N-terminal GST-tagged JAK1 (850 to 1154 residues) expressed in baculovirus expression system using Ulight-Poly GT as substrate incubated for 2 hrs by Lanthascreen TR-FRET assay
Sequence of Tyrosine-protein kinase JAK1 (P23458 whole entry, the tested form may be a part): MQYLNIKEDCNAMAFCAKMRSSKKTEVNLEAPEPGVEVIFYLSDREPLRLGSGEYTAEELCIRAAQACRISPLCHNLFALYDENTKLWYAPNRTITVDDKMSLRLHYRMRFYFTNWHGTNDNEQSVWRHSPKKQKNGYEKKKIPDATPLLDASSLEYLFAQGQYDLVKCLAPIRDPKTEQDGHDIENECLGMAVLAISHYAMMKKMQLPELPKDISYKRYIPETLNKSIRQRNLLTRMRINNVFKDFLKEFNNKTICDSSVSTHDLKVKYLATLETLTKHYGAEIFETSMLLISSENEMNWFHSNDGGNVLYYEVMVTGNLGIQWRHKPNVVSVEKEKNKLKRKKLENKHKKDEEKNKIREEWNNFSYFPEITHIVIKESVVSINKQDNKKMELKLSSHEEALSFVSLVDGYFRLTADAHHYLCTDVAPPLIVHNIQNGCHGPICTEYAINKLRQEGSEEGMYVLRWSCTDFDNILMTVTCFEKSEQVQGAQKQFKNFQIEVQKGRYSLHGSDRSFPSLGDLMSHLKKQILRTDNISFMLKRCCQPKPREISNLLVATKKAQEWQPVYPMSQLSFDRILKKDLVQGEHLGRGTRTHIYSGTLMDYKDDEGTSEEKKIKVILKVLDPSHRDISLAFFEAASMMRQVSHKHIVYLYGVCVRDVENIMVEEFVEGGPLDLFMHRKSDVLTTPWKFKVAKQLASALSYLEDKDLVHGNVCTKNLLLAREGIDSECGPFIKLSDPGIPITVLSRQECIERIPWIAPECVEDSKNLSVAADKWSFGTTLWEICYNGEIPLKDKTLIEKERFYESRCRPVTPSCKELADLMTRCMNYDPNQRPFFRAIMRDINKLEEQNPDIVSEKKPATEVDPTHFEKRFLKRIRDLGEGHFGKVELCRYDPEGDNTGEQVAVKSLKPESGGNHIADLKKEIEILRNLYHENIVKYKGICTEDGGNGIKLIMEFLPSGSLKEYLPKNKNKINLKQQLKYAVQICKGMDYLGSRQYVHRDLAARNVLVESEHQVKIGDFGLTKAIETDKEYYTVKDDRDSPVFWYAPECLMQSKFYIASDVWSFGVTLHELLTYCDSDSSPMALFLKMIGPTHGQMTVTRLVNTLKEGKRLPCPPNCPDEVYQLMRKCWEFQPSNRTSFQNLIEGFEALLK

`C=CC(=O)Nc1cccc(Nc2nc(Nc3ccc4c(c3)B(O)OC4)ncc2C(F)(F)F)c1` gave an IC50 (Raji) of 6800 nM, an IC50 (OCI-Ly10) of over 10000 nM and an IC50 (Ramos) of 2300 nM. For the same compound, the IC50 [1] was over 1000 nM, the IC50 (JeKo-1) was 1200 nM and the microsomal CLint at 1 h, 0.2 µM (in vitro [2]) was 24.8 µL/min/mg. For the same compound, the Ratio IC50 (Homo sapiens [3]) was over 1000, the Ratio IC50 (Homo sapiens [4]) was over 1000 and the remaining at 1 h, 0.2 µM (in vitro [5]) was 45%. For the same compound, the Ratio IC50 (Homo sapiens [6]) was over 1000, the IC50 (HEL) was 5100 nM and the half-life at 1 h, 0.2 µM (in vitro [7]) was 55.9 min. For the same compound, the IC50 [8] was 0.5 nM, the IC50 [9] was 972 nM and the IC50 [10] was 2.9 nM. For the same compound, the IC50 [11] was over 1000 nM.
In the case of `C=CC(=O)Nc1cccc(Oc2nc(Nc3ccc4c(c3)COB4O)ncc2OC)c1`, the IC50 [1] is reported as over 1000 nM, the Ratio IC50 (Homo sapiens [3]) is reported as over 1000 and the Ratio IC50 (Homo sapiens [4]) is reported as over 1000. The Ratio IC50 (Homo sapiens [6]) was over 1000, the IC50 [8] was 0.8 nM and the IC50 [9] was over 1000 nM. The IC50 [10] was 1.7 nM and the IC50 [11] was over 1000 nM.
`C=CC(=O)Nc1cccc(Nc2nc(Oc3ccc4c(c3)B(O)OC4)ncc2C(F)(F)F)c1` gave an IC50 [10] of over 1000 nM.
`C=CC(=O)Nc1cccc(Nc2nc(Nc3ccc4c(c3)COB4O)ncc2C(F)(F)F)c1` gave an IC50 (Raji) of 1700 nM, an IC50 (OCI-Ly10) of 1000 to 10000 nM and an IC50 (Ramos) of 500 nM. It also gave an IC50 [1] of over 1000 nM, an IC50 (JeKo-1) of 500 nM and a microsomal CLint at 1 h, 0.2 µM (in vitro [2]) of 23.6 µL/min/mg. For the same compound, the Ratio IC50 (Homo sapiens [3]) was over 1000, the Ratio IC50 (Homo sapiens [4]) was over 1000 and the remaining at 1 h, 0.2 µM (in vitro [5]) was 47.2%. The Ratio IC50 (Homo sapiens [6]) was over 1000, the IC50 (HEL) was 1100 nM and the half-life at 1 h, 0.2 µM (in vitro [7]) was 58.8 min. The IC50 [8] was 0.4 nM, the IC50 [9] was 658 nM and the IC50 [10] was 0.6 nM. For the same compound, the IC50 [11] was over 1000 nM.
In the case of `C=CC(=O)Nc1cccc(Nc2nc(Nc3ccc4c(c3)B(O)OC4)ncc2Cl)c1`, the IC50 [10] is reported as 4.7 nM.
`C=CC(=O)Nc1cccc(Nc2nc(Nc3ccc4c(c3)COB4O)ncc2OC)c1` showed an IC50 [10] of 8.2 nM.
`C=CC(=O)Nc1cccc(Nc2nc(Nc3cccc(B(O)O)c3)ncc2C(F)(F)F)c1` gave an IC50 [10] of 6.5 nM.
For `C=CC(=O)Nc1cccc(Nc2nc(NNc3ccccc3)ncc2C(F)(F)F)c1`, the IC50 [10] was over 1000 nM.
With `C=CC(=O)Nc1cccc(Nc2nc(Nc3ccc4c(c3)B(O)OC4(C)C)ncc2C(F)(F)F)c1` the IC50 [1] was over 1000 nM, the Ratio IC50 (Homo sapiens [3]) was over 1000 and the Ratio IC50 (Homo sapiens [4]) was over 1000. The Ratio IC50 (Homo sapiens [6]) was over 1000, the IC50 [8] was 1 nM and the IC50 [9] was over 1000 nM. The IC50 [10] was 2 nM and the IC50 [11] was over 1000 nM.
In the case of `C=CC(=O)N1CCCC(Nc2nc(Nc3ccc4c(c3)COB4O)ncc2C(F)(F)F)C1` (centres undefined), the IC50 [10] is reported as 36.8 nM.
For `C=CC(=O)Nc1cccc(Nc2nc(Nc3ccc4c(c3)B(O)OC4)ncc2C)c1`, the IC50 [10] was 6.1 nM.
Work on `C=CC(=O)Nc1cccc(Nc2nc(Nc3ccc(B(O)O)cc3)ncc2C(F)(F)F)c1` yielded an IC50 [1] of over 1000 nM, a Ratio IC50 (Homo sapiens [3]) of over 1000 and a Ratio IC50 (Homo sapiens [4]) of over 1000. The Ratio IC50 (Homo sapiens [6]) was over 1000, the IC50 [8] was 0.3 nM and the IC50 [9] was 891 nM. It also gave an IC50 [10] of 1.5 nM and an IC50 [11] of over 1000 nM.
`C=CC(=O)Nc1cccc(Nc2nc(Nc3cccc4c3B(O)OC4)ncc2C(F)(F)F)c1` gave an IC50 [10] of 268 nM.
For `C=CC(=O)Nc1cccc(Oc2nc(Nc3ccc4c(c3)COB4O)ncc2C(F)(F)F)c1`, the IC50 [10] was 6.5 nM.
`C=CC(=O)Nc1ccc(OC)c(Nc2nc(Nc3ccc4c(c3)B(O)OC4)ncc2C(F)(F)F)c1` gave an IC50 [10] of over 1000 nM.
With `C=CC(=O)Nc1cccc(Nc2nc(Nc3ccc(OCCOC)cc3)ncc2F)c1` [SPEBRUTINIB] the IC50 (Raji) was 17600 nM, the IC50 (OCI-Ly10) was over 10000 nM and the IC50 (Ramos) was 3900 nM. The IC50 (JeKo-1) was 1300 nM, the microsomal CLint at 1 h, 0.2 µM (in vitro [2]) was 31.9 µL/min/mg and the remaining at 1 h, 0.2 µM (in vitro [5]) was 38.8%. For the same compound, the IC50 (HEL) was 5300 nM, the half-life at 1 h, 0.2 µM (in vitro [7]) was 43.4 min and the IC50 [8] was 8.5 nM. It also gave an IC50 [9] of 534 nM and an IC50 [11] of over 1000 nM.
`CN(C)C/C=C/C(=O)Nc1cccc(Nc2nc(Nc3ccc4c(c3)COB4O)ncc2C(F)(F)F)c1` showed an IC50 [10] of 11.8 nM.
Work on `C=CC(=O)Nc1cccc(Nc2nc(Nc3cccc4c3COB4O)ncc2C(F)(F)F)c1` yielded an IC50 [10] of 63 nM.
Work on `C=CC(=O)Nc1cccc(Nc2nc(Nc3cc4c(cc3F)COB4O)ncc2C(F)(F)F)c1` yielded an IC50 [10] of 156 nM.
`C=CC(=O)Nc1cccc(Nc2nc(Nc3ccc4c(c3)B(O)OC4)ncc2F)c1` showed an IC50 [10] of 8.5 nM.
Compound `C=CC(=O)Nc1cccc(Nc2nc(Nc3ccc4c(c3)B(O)OCC4)ncc2C(F)(F)F)c1` has an IC50 [1] of over 1000 nM, a Ratio IC50 (Homo sapiens [3]) of over 1000 and a Ratio IC50 (Homo sapiens [4]) of over 1000. For the same compound, the Ratio IC50 (Homo sapiens [6]) was over 1000, the IC50 [8] was 1.5 nM and the IC50 [9] was over 1000 nM. The IC50 [10] was 1.9 nM and the IC50 [11] was over 1000 nM.
